Compound in one test: COc1cc2nccc(Oc3ccc(NC(=O)NC4CC4)c(Cl)c3)c2cc1C(N)=O [LENVATINIB]
Briefly: surviving fraction relative to DMSO-only wells; higher = less growth inhibition. The following applies: exposure time: 5 days. The procedure, abridged: (§1)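 A line counted only if its three screens reached replicate Pearson r >0.7 and median Z' >0.3. Tumour cells in log phase were seeded at 250–500 per well in 384-well plates and, after 24 hours, kept in continuous contact with inhibitors at 0.5, 1, 5, 10, 50, 100, 500 and 1000 nM for five days. Surviving fraction was taken from CellTiter-Glo luminescence relative to the median of DMSO-only wells.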

Compound in another test: Cn1c(=O)n(-c2ccc(C(C)(C)C#N)cc2)c2c3cc(-c4cnc5ccccc5c4)ccc3ncc21 [BEZ-235]
The description is as above. The following applies: exposure time: 5 days. The method, boiled down:
as §1

± gives the standard deviation of the averaged measurements.

Take C33A CERVIX: the surviving fraction is 0.874 ± 0.037 with LENVATINIB (0.5 nM); 0.937 ± 0.094 with LENVATINIB (1 nM); 1 ± 0.14 with LENVATINIB (5 nM); 1 ± 0.11 with LENVATINIB (10 nM); 1.06 ± 0.097 in the test with LENVATINIB (50 nM); 1.14 ± 0.056 in the test with LENVATINIB (100 nM). The surviving fraction came out at 1.02 ± 0.1 with LENVATINIB (500 nM); 0.955 ± 0.088 in the test with LENVATINIB (1000 nM); 0.941 ± 0.029 with BEZ-235 (0.5 nM); 0.984 ± 0.064 in the test with BEZ-235 (1 nM); 1.01 ± 0.098 with BEZ-235 (5 nM); 0.993 ± 0.081 with BEZ-235 (10 nM). The surviving fraction worked out at 0.62 ± 0.043 in the test with BEZ-235 (50 nM), 0.349 ± 0.031 in the test with BEZ-235 (100 nM), 0.15 ± 0.016 with BEZ-235 (500 nM) and 0.14 ± 0.011 with BEZ-235 (1000 nM).

Regarding HSSYII SYNOVIAL, the surviving fraction with LENVATINIB (0.5 nM) was 0.933 ± 0.057; with LENVATINIB (1 nM), 0.961 ± 0.028; in the test with LENVATINIB (5 nM), 0.952 ± 0.018; with LENVATINIB (10 nM), 0.942 ± 0.06; in the test with LENVATINIB (50 nM) it was 0.842 ± 0.026; with LENVATINIB (100 nM) it was 0.724 ± 0.024. Moreover, the surviving fraction in the test with LENVATINIB (500 nM) is 0.38 ± 0.024; with LENVATINIB (1000 nM), 0.3 ± 0.017; in the test with BEZ-235 (0.5 nM), 0.963 ± 0.072; in the test with BEZ-235 (1 nM), 0.921 ± 0.062; with BEZ-235 (5 nM), 0.933 ± 0.012; with BEZ-235 (10 nM), 0.88 ± 0.032. Moreover, the surviving fraction in the test with BEZ-235 (50 nM) is 0.548 ± 0.017; with BEZ-235 (100 nM) it was 0.38 ± 0.0082; with BEZ-235 (500 nM), 0.165 ± 0.0072; in the test with BEZ-235 (1000 nM), 0.129 ± 0.013.

Take HUO3N1 BONE: the surviving fraction with LENVATINIB (0.5 nM) came out at 1.05 ± 0.057; with LENVATINIB (1 nM), 1.04 ± 0.058; with LENVATINIB (5 nM) it was 1.03 ± 0.013; with LENVATINIB (10 nM), 0.961 ± 0.053; in the test with LENVATINIB (50 nM) it was 0.967 ± 0.034; with LENVATINIB (100 nM), 0.876 ± 0.018. Besides, the surviving fraction in the test with LENVATINIB (500 nM) was found to be 0.764 ± 0.0072; in the test with LENVATINIB (1000 nM), 0.676 ± 0.051; with BEZ-235 (0.5 nM), 0.992 ± 0.041; in the test with BEZ-235 (1 nM), 1.04 ± 0.042; with BEZ-235 (5 nM) it was 0.946 ± 0.025; with BEZ-235 (10 nM), 0.994 ± 0.039. Moreover, the surviving fraction with BEZ-235 (50 nM) turned out to be 0.838 ± 0.071; with BEZ-235 (100 nM) it was 0.631 ± 0.031; with BEZ-235 (500 nM), 0.341 ± 0.0053; in the test with BEZ-235 (1000 nM), 0.258 ± 0.0061.

In the case of ZR751 BREAST, the surviving fraction with LENVATINIB (0.5 nM) was 1.04 ± 0.12; in the test with LENVATINIB (1 nM), 0.964 ± 0.15; with LENVATINIB (5 nM) it was 0.926 ± 0.035; with LENVATINIB (10 nM) it was 0.84 ± 0.071; with LENVATINIB (50 nM) it was 1.06 ± 0.092; in the test with LENVATINIB (100 nM), 1.1 ± 0.088. Besides, the surviving fraction in the test with LENVATINIB (500 nM) came to 0.915 ± 0.23; with LENVATINIB (1000 nM) it was 1.04 ± 0.022; with BEZ-235 (0.5 nM), 1.03 ± 0.1; in the test with BEZ-235 (1 nM), 1.03 ± 0.23; with BEZ-235 (5 nM), 0.912 ± 0.12; with BEZ-235 (10 nM), 0.907 ± 0.093. The surviving fraction in the test with BEZ-235 (50 nM) is 0.725 ± 0.063; with BEZ-235 (100 nM) it was 0.519 ± 0.1; in the test with BEZ-235 (500 nM), 0.226 ± 0.011; with BEZ-235 (1000 nM), 0.176 ± 0.011.

As to BT20 BREAST, the surviving fraction is 1.15 ± 0.07 with LENVATINIB (0.5 nM); 1.2 ± 0.077 with LENVATINIB (1 nM); 1.21 ± 0.093 with LENVATINIB (5 nM); 1.01 ± 0.15 with LENVATINIB (10 nM); 1.05 ± 0.088 in the test with LENVATINIB (50 nM); 1.05 ± 0.16 with LENVATINIB (100 nM). Also, the surviving fraction with LENVATINIB (500 nM) stood at 1.24 ± 0.16; with LENVATINIB (1000 nM) it was 1.08 ± 0.2; with BEZ-235 (0.5 nM) it was 1.13 ± 0.062; in the test with BEZ-235 (1 nM), 1.07 ± 0.18; with BEZ-235 (5 nM) it was 1.04 ± 0.14; with BEZ-235 (10 nM) it was 1.03 ± 0.082. For the same test system, the surviving fraction with BEZ-235 (50 nM) is 0.619 ± 0.051; with BEZ-235 (100 nM) it was 0.42 ± 0.087; with BEZ-235 (500 nM), 0.265 ± 0.044; in the test with BEZ-235 (1000 nM), 0.246 ± 0.031.

As for JIMT1 BREAST, the surviving fraction turned out to be 0.987 ± 0.026 with LENVATINIB (0.5 nM); 1.03 ± 0.0053 with LENVATINIB (1 nM); 1.03 ± 0.026 with LENVATINIB (5 nM); 1.03 ± 0.052 with LENVATINIB (10 nM); 1.06 ± 0.068 in the test with LENVATINIB (50 nM); 1.04 ± 0.011 with LENVATINIB (100 nM). Besides, the surviving fraction in the test with LENVATINIB (500 nM) is 1 ± 0.015; with LENVATINIB (1000 nM), 1.08 ± 0.011; in the test with BEZ-235 (0.5 nM) it was 1.03 ± 0.031; in the test with BEZ-235 (1 nM) it was 0.992 ± 0.024; in the test with BEZ-235 (5 nM) it was 0.983 ± 0.0095; in the test with BEZ-235 (10 nM), 0.992 ± 0.019. The surviving fraction in the test with BEZ-235 (50 nM) stood at 0.732 ± 0.03; with BEZ-235 (100 nM) it was 0.464 ± 0.04; with BEZ-235 (500 nM), 0.21 ± 0.013; in the test with BEZ-235 (1000 nM), 0.194 ± 0.009.

The values above are taken from the supplement of paper PMC6045584.
